ChEMBL document CHEMBL1955725, “Structure-guided lead optimization of triazolopyrimidine-ring substituents identifies potent Plasmodium falciparum dihydroorotate dehydrogenase inhibitors with clinical candidate potential” (J Med Chem, 2011)
Converted amounts (≈) assume the structure as drawn.

Experiments:
[1] = Cmax in Sprague-Dawley rat at 21.2 mg/kg, po; format: ADME, organism-based; design: dose 21.2 mg/kg, route oral; details: in vivo
Plasmodium falciparum [2] = experiment: Antimalarial activity against chloroquine and pyrimethamine-resistant Plasmodium falciparum K1 by [3H]hypoxanthine incorporation assay in presence of human serum; format: functional, organism-based
[3] = Terminal elimination half life in Swiss outbred mouse at 10 mg/kg, po; format: ADME, organism-based; design: dose 10 mg/kg, route oral; details: in vivo, read-out: beta t1/2 (converted)
in vivo [4] = details: NOD-SCID IL-2Rgamma-null, mouse, po, 5.7 mg/kg
[5] = Cmax in Swiss outbred mouse at 2 mg/kg, po; format: ADME, organism-based; design: dose 2 mg/kg, route oral; details: in vivo
[6] = AUC (0 to infinity) in Swiss outbred mouse plasma at 10 mg/kg, po; format: ADME, organism-based; design: time infinity, dose 10 mg/kg, route oral
[7] = Oral bioavailability in Sprague-Dawley rat at 21.2 mg/kg; format: ADME, organism-based; details: in vivo
Mus musculus [8] = experiment: Time plasma concentration remained above 1 uM in Swiss outbred mouse plasma at 50 mg/kg, po; format: ADME, organism-based; design: dose 50 mg/kg, route oral; details: in vivo
in vivo [9] = details: Swiss outbred, mouse, po, 2 mg/kg
[10] = AUC (0 to infinity) in Swiss outbred mouse plasma at 0.4 mg/kg, po; format: ADME, organism-based; design: time infinity, dose 0.4 mg/kg, route oral
[11] = Terminal elimination half life in Sprague-Dawley rat at 2 mg/kg, po; format: ADME, organism-based; design: dose 2 mg/kg, route oral; details: in vivo, read-out: beta t1/2 (converted)
Liver = experiment: Intrinsic clearance in mouse liver microsomes; format: ADME, Microsome
[12] = Terminal elimination half life in Swiss outbred mouse at 0.4 mg/kg, po; format: ADME, organism-based; design: dose 0.4 mg/kg, route oral; details: in vivo, read-out: beta t1/2 (converted)
Plasmodium falciparum [13] = experiment: Antimalarial activity against […] Plasmodium falciparum TM90C2A by [3H]hypoxanthine incorporation assay in presence of human serum; format: functional, organism-based
in vivo [14] = details: Sprague-Dawley, rat, po, 21.2 mg/kg
Plasmodium falciparum [15] = experiment: Antimalarial activity against atovoquone-resistant Plasmodium falciparum TM90C2B by [3H]hypoxanthine incorporation assay in presence of human serum; format: functional, organism-based
Mus musculus [16] = experiment: AUC (0 to 48 hrs) in Swiss outbred mouse plasma at 50 mg/kg, po; format: ADME, organism-based; design: time < 48 hr, dose 50 mg/kg, route oral; details: in vivo
[17] = Volume of distribution in Sprague-Dawley rat at 1 mg/kg, iv; format: ADME, organism-based; design: dose 1 mg/kg, route intravenous; details: in vivo
[18] = Cmax in Swiss outbred mouse at 0.4 mg/kg, po; format: ADME, organism-based; design: dose 0.4 mg/kg, route oral; details: in vivo
[19] = Cmax in Swiss outbred mouse at 50 mg/kg, po; format: ADME, organism-based; design: dose 50 mg/kg, route oral; details: in vivo
in vivo [20] = details: NOD-SCID IL-2Rgamma-null, mouse, po, 5.7 mg/kg; remark: listed apart in the source
in vivo [21] = details: Swiss outbred, mouse, po, 10 mg/kg
[22] = AUC (0 to infinity) in Swiss outbred mouse plasma at 2 mg/kg, po; format: ADME, organism-based; design: time infinity, dose 2 mg/kg, route oral
L1210 = experiment: Cytotoxicity against mouse L1210 cells; format: cell-based
in vivo [23] = details: Sprague-Dawley, rat, po, 2 mg/kg
[24] = Cmax in human RBC engrafted NOD-SCID IL-2Rgamma-null mouse at 5.7 mg/kg, po; format: ADME, organism-based; design: dose 5.7 mg/kg, route oral; details: in vivo
[25] = Inhibition of Plasmodium berghei C-terminal hexa-His tagged DHODH expressed in Escherichia coli by DCIP reduction assay
Plasmodium falciparum [26] = experiment: Antimalarial activity against Plasmodium falciparum 3D7 by [3H]hypoxanthine incorporation assay in presence of human serum; format: functional, organism-based
[27] = Cmax in Sprague-Dawley rat at 2 mg/kg, po; format: ADME, organism-based; design: dose 2 mg/kg, route oral; details: in vivo
[28] = Aqueous solubility of the compound at pH 6.5; format: physicochemical
Plasmodium falciparum [29] = experiment: Antimalarial activity against Plasmodium falciparum 3D7 0087/N9 infected in human RBC engrafted NOD-SCID IL-2Rgamma-null mouse assessed as reduction in parasitemia administered orally 3 days post infection qd for 4 days measured 24 hrs after final dose by FACS analysis; format: functional; details: 3D7 0087/N9, po
in vivo [30] = details: Swiss outbred, mouse, po, 50 mg/kg
[31] = AUC (0 to infinity) in Sprague-Dawley rat at 21.2 mg/kg, po; format: ADME, organism-based; design: time infinity, dose 21.2 mg/kg, route oral; details: plasma
Plasmodium falciparum [32] = experiment: Antimalarial activity against drug-sensitive Plasmodium falciparum HB3 by [3H]hypoxanthine incorporation assay in presence of human serum; format: functional, organism-based
Plasma = experiment: Plasma protein binding in human by ultracentrifugation method; format: ADME, cell-free
[33] = Terminal elimination half life in Sprague-Dawley rat at 1 mg/kg, iv; format: ADME, organism-based; design: dose 1 mg/kg, route intravenous; details: in vivo, read-out: beta t1/2 (converted)
[34] = AUC (0 to infinity) in Sprague-Dawley rat at 2 mg/kg, po; format: ADME, organism-based; design: time infinity, dose 2 mg/kg, route oral; details: plasma
Liver microsomes = experiment: Intrinsic clearance in human liver microsomes; format: ADME, Microsome
HepG2 = experiment: Cytotoxicity against human HepG2 cells; format: cell-based
[35] = Clearance in Sprague-Dawley rat at 1 mg/kg, iv; format: ADME, organism-based; design: dose 1 mg/kg, route intravenous; details: in vivo
[36] = Plasma protein binding in Swiss outbred mouse by ultracentrifugation; details: read-out: PPB (converted)
Plasmodium falciparum [37] = experiment: Antimalarial activity against drug-sensitive Plasmodium falciparum D6 by [3H]hypoxanthine incorporation assay in presence of human serum; format: functional, organism-based
[38] = Cmax in Swiss outbred mouse at 10 mg/kg, po; format: ADME, organism-based; design: dose 10 mg/kg, route oral; details: in vivo
[39] = target: T1, Dihydroorotate dehydrogenase (Plasmodium falciparum, UniProt Q54A96)
T1 sequence (Q54A96 whole entry): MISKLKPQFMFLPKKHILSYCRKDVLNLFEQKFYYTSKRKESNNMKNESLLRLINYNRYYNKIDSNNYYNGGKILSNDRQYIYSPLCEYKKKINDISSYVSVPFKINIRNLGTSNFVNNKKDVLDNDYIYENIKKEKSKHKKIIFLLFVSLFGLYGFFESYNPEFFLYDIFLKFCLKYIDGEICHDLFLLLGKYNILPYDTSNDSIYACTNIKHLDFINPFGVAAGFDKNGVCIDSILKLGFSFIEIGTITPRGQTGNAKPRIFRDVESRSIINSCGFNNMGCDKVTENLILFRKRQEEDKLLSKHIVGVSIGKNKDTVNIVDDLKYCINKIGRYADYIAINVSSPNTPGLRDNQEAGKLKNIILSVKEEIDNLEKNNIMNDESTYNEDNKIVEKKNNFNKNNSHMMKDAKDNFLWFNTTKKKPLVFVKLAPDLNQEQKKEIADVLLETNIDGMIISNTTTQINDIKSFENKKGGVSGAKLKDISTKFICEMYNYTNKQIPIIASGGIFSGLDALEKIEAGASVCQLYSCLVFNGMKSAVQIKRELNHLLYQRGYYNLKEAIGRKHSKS
Description: Inhibition of Plasmodium falciparum C-terminal hexa-His tagged DHODH expressed in Escherichia coli by DCIP reduction assay

[40] = Terminal elimination half life in Sprague-Dawley rat at 21.2 mg/kg, po; format: ADME, organism-based; design: dose 21.2 mg/kg, route oral; details: in vivo, read-out: beta t1/2 (converted)
Mus musculus [41] = experiment: Time plasma concentration remained above 1 uM in Swiss outbred mouse plasma at 10 mg/kg, po; format: ADME, organism-based; design: dose 10 mg/kg, route oral; details: in vivo
[42] = Oral bioavailability in Sprague-Dawley rat at 2 mg/kg; format: ADME, organism-based; details: in vivo
[43] = Clearance in Sprague-Dawley rat at 4.5 mg/kg, iv; format: ADME, organism-based; design: dose 4.5 mg/kg, route intravenous; details: in vivo

## Cc1cc(Nc2ccc(C(F)(F)F)cc2)n2nc(C(C)(F)F)nc2n1
[1]
  Cmax: 11.4 µM
Plasmodium falciparum [2]
  EC50: 16 nM
[3]
  half-life: 1.6 h
In vivo [4]
  Tmax: 1.7 h
[5]
  Cmax: 1.85 µM
[6]
  AUC(0-inf): 70.1 µM·h
[7]
  bioavailability: > 100%
Mus musculus [8]
  Time: 14 h
In vivo [9]
  Tmax: 1 h
[10]
  AUC(0-inf): 0.667 µM·h
[11]
  half-life: 6 h
Liver
  Intrinsic clearance: 10.1 µL/min/mg
[12]
  half-life: 2.1 h
Plasmodium falciparum [13]
  EC50: 7.9 nM
In vivo [14]
  Tmax: 3.25 h
Plasmodium falciparum [15]
  EC50: 4.6 nM
Mus musculus [16]
  AUC: 14815 µM·min
[17]
  Vd: 3.3 L/kg
[18]
  Cmax: 0.2 µM
[19]
  Cmax: 57 µM
In vivo [20]
  Tmax: 2.7 h
In vivo [21]
  Tmax: 4 h
[22]
  AUC(0-inf): 9.48 µM·h
L1210
  EC50: > 50000 nM
In vivo [23]
  Tmax: 1 h
[24]
  Cmax: 6.3 µM
[25]
  IC50: 2400 nM
Plasmodium falciparum [26]
  EC50: 10 nM
[27]
  Cmax: 0.9 µM
[28]
  solubility: 70 µM (≈ 25 µg/mL)
Plasmodium falciparum [29]
  ED50: 9.6 mg/kg
  ED90: 26 mg/kg
In vivo [30]
  Tmax: 2 h
[31]
  AUC(0-inf): 342 µM·h
Plasmodium falciparum [32]
  EC50: 7.9 nM
Plasma
  PPB: 98.8%
[33]
  half-life: 6.1 h
[34]
  AUC(0-inf): 3.88 µM·h
Liver microsomes
  Intrinsic clearance: < 5 µL/min/mg
HepG2
  EC50: > 50000 nM
[35]
  clearance: 23.2 mL/min/kg
[36]
  fraction unbound: 0.026
Plasmodium falciparum [37]
  EC50: 12 nM
[38]
  Cmax: 9.86 µM
[39]
  IC50: 38 nM
[40]
  half-life: 17 h
Mus musculus [41]
  Time: 14 h
[42]
  bioavailability: 97%
[43]
  clearance: 12.6 mL/min/kg
